Source: ChEMBL document CHEMBL3217606, “New positive allosteric modulators of the metabotropic glutamate receptor 2 (mGluR2). Identification and synthesis of N-propyl-5-substituted isoquinolones” (Medchemcomm, 2011)

What was measured:
[1] = target: T1, Metabotropic glutamate receptor 2 (Homo sapiens, UniProt Q14416); assay: Positive allosteric modulation of human mGluR2 expressed in CHO cells assessed as incorporation of [35S]GTPgammaS after 30 mins by scintillation counting analysis; assay type: functional, cell-based
Target sequence in this assay (Q14416 whole entry): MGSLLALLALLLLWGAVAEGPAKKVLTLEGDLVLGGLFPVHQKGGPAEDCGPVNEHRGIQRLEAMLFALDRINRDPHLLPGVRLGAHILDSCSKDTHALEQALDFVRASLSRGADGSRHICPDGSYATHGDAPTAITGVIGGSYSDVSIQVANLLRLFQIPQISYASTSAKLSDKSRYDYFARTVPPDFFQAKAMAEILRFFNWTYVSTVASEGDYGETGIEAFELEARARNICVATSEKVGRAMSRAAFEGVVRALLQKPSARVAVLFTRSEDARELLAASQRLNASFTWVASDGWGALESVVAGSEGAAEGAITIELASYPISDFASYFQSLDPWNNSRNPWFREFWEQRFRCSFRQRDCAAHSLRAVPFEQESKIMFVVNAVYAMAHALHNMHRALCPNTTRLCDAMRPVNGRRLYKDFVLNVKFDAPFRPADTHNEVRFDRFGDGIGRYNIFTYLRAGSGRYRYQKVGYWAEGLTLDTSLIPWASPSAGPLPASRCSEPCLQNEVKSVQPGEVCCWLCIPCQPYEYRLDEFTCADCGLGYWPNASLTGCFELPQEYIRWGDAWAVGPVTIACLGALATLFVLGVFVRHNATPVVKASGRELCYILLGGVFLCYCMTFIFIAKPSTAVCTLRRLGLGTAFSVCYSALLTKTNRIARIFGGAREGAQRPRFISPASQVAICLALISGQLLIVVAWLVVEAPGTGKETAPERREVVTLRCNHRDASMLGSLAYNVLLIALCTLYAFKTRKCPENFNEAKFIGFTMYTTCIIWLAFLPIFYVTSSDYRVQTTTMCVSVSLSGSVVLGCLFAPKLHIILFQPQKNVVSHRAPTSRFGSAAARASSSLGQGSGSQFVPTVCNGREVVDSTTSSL

[2] = target: T1, Metabotropic glutamate receptor 2; assay: Positive allosteric modulation of human mGluR2 expressed in CHO cells assessed as incorporation of [35S]GTPgammaS at 0.3 nM to 50 uM after 30 mins by scintillation counting analysis relative to control; assay type: functional, cell-based
Target sequence in this assay (Q14416 19-872 limits assumed): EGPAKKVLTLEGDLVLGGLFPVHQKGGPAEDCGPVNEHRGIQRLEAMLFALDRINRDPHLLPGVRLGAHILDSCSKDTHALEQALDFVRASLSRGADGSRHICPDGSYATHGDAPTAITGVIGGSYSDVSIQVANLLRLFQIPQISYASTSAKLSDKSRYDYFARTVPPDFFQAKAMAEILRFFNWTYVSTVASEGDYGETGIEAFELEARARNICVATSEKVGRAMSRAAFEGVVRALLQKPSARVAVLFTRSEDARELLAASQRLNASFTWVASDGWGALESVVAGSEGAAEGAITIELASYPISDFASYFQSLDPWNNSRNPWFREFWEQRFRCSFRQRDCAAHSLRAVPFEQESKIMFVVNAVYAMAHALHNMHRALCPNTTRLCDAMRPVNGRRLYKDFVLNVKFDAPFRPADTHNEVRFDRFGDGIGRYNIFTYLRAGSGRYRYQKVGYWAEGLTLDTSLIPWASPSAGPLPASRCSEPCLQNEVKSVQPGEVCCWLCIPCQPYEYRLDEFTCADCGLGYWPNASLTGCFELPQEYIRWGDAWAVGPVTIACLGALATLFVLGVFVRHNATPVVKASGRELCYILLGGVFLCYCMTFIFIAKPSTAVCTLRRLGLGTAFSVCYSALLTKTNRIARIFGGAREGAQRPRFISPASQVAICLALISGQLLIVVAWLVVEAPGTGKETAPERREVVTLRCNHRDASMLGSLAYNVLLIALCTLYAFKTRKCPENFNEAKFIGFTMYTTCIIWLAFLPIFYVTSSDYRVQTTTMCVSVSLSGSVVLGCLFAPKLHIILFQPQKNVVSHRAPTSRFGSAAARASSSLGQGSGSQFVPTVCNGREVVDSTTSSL

[3] = target: T1, Metabotropic glutamate receptor 2; assay: Positive allosteric modulation of mGluR2 (unknown origin) by FLIPR assay
Target sequence in this assay (Q14416 whole entry): as the sequence (Q14416 whole entry) above

[4] = Drug metabolism in human liver microsomes at 5 uM after 15 mins; assay type: ADME; conditions: read-out: Drug metabolism
[5] = target: T1, Metabotropic glutamate receptor 2; assay: Potentiation of human mGluR2 expressed in CHO cells assessed as fold shift in glutamate concentration response curve at 3 uM relative to control; assay type: cell-based
Target sequence in this assay (Q14416 19-872 limits assumed): as the sequence (Q14416 19-872 limits assumed) above

Row | SMILES | EC50 [1] | Emax [2] | EC50 [3] | metabolised at 0.25 h, 5 µM [4] | fold change (FC) [5]
1 | CCCn1ccc2c(NCc3cccc(Oc4ccccc4)c3)cccc2c1=O | 1260 nM | 65% | – | – | –
2 | CCCn1ccc2c(NCCc3ccccc3)cccc2c1=O | 501 nM | 123% | 158 nM | 52% | –
3 | CCCn1ccc2c(NCc3ccccc3)cccc2c1=O | 2000 nM | 80% | – | 38% | –
4 | CCCn1ccc2c(NCCc3ccc(OC)cc3)cccc2c1=O | 251 nM | 92% | – | 97% | –
5 | CCCn1ccc2c(NCCCc3ccccc3)cccc2c1=O | 158 nM | 112% | – | 57% | –
6 | CCCn1ccc2c(NCCc3ccccc3OC)cccc2c1=O | 126 nM | 137% | – | 91% | –
7 | CCCn1ccc2c(N(C)CCc3ccc(OC)cc3)cccc2c1=O | 398 nM | 93% | – | – | –

More lines, now with the values ahead:

Row | EC50 [1] | Emax [2] | EC50 [3] | metabolised at 0.25 h, 5 µM [4] | fold change (FC) [5] | SMILES
8 | 251 nM | 123% | – | – | – | CCCn1ccc2c(OCCc3ccc(OC)cc3)cccc2c1=O
9 | 501 nM | 81% | – | – | – | CCCn1ccc2c(NCc3ccc(OC)cc3)cccc2c1=O
10 | 200 nM | 163% | – | 26% | 6.6 | CCCn1ccc2c(NCc3ccccc3Cl)cccc2c1=O
11 | 200 nM | 162% | – | 34% | – | CCCn1ccc2c(NCc3cccc(OC(F)(F)F)c3)cccc2c1=O
12 | 251 nM | 110% | – | – | – | CCCn1ccc2c(NCCc3cccc(OC)c3)cccc2c1=O
13 | 251 nM | 68% | – | – | – | CCCn1ccc2c(NCCc3ccccc3)ccc(Cl)c2c1=O
14 | 316 nM | 129% | – | – | – | CCCn1ccc2c(NCc3cccc(OC)c3)cccc2c1=O
15 | 200 nM | 134% | – | – | – | CCCn1ccc2c(NCCc3ccc(C)cc3)cccc2c1=O
